Assay results published in patent publication US20100151520A1, “Translation Enhancer Elements Of Genes Encoding Human Tau Protein and Human Alpha-Synuclein Protein” (priority 2004, published 2010).
Entries after “also recorded” stand apart in the source; their conditions may differ.

Key:
α-synuclein protein = experiment: Western blot of α-synuclein protein levels in treated SY5Y neuroblastoma cells; format: cell-based, human
Tau mRNA = experiment: Quantitative real-time PCR of Tau mRNA levels in SY5Y cells; format: cell-based, human; conditions: for Tau mRNA levels: 6 or 16 hours (100 μM DFO where stated), FIG. 5
Method: Quantitative real-time PCR (QRTPCR) was performed on RNA extracted from iron/zinc and desferrioxamine treated mRNA. Methods for QRTPCR were as described for priming an α-synuclein amplicon (see Example 1) except that oligonucleotides were (NM016835Rev) 5′[…]3′ (SEQ ID NO:15) and (NM 016835For) 5′[…]3′ (SEQ ID NO:16).
(§1) Neuroblastoma cells (SY5Y) were treated with each agent for 6 hours or 16 hours and control cells were left untreated (U) for the same indicated times (i.e., 6 hours untreated=U6, and 16 hours untreated=U16).

wild-type pGL3 vector = experiment: Luciferase reporter assay, wild-type pGL3 control vector; format: cell-based
Method: (§2) To determine whether α-synuclein 5′UTR sequences were iron responsive SH-SY5Y transfection experiments were performed using an ASN 5′UTR pGL3 construct compared to pGL3, and control vector in which the luciferase expression was translated in the absence of the α-synuclein 5′UTR.
A 46 base sequence (SEQ ID NO:21) of the α-synuclein 5′ UTR was synthesized with a HindIII site at the 5′ end and a Nco I site at the 3′ end (Integrated DNA Technologies, Coralville, Iowa) and then ligated into a pGL-3 vector (Promega, Madison Wis.) immediately in front of the luciferase gene, under the control of a SV40 promotor. Wild-type pGL3 or pGL3 containing the α-synuclein 5′ UTR insert upstream of the luciferase promotor (α-synuclein 5′UTR-pGL3) were used. Expression of green fluorescent protein (GFP) within the pGL3 vector, controlled by a SV40 late poly(A) signal was used to control for transfection efficiency. 8×10^5 neuroblastoma HYSY cells were seeded for 24 hours in 60-mm^2 dishes with 5 ml Dulbeccco's modified medium containing 10% fetal bovine serum. […] GFP expression was quantified at 489/509 nm with the same Wallac 1420 counter to control for transfection efficiency.

α-synuclein mRNA = experiment: Quantitative real-time PCR of α-synuclein mRNA levels in SY5Y cells; format: cell-based, human; conditions: 6 or 16 hours, relative to beta actin (FIG. 4)
Method: (§3) Quantitative real-time PCR (qRTPCR) was used to measure steady-state mRNA levels for α-synuclein mRNA relative to […] in response to iron. Neuroblastoma (SY5Y) cells were treated with iron or desferrioxamine (DFO) for 6 hours or 16 hours and control cells were left untreated (U) for the same indicated times (i.e., 6 hours untreated=U6, and 16 hours untreated=U16). TfR mRNA was the experimental positive control mRNA.
(§4) The qRTPCR was conducted as follows. Total RNA was isolated from iron and desferrioxamine treated neuroblastoma cell line, SH-SY5Y according to manufacturers specification (RNAeasy Mini Kit, Qiagen, Valencia, Calif.). The optional on-column DNase digestion with the RNase-Free DNase set (Qiagen) was incorporated into all RNA isolations.
3 μg total RNA was primed with oligo-dT and the Superscript II enzyme according to manufacturer's instructions (Invitrogen, Carlsbad, Calif.) to synthesize […] cDNA. For qRTPCR, primer specificity was initially verified by searching for homology to genomic databases using NCBI BLAST. After completion of qRTPCR, the appropriately sized amplicon were confirmed by agarose gel electrophoresis. […] Fluorescence was measured at the end of each annealing cycle using the ABI Prism 7000 (Applied Biosystems, Foster City, Calif.). Average threshold cycle (Ct) values were measured in the exponential phase of the PCR reaction for each duplicate sample. […] Relative expression of the treated samples was determined by first normalizing against that of the untreated samples (ΔCT^sample−ΔCT^normal=ΔΔCT) and then calculating the fold change (fold change=2^−ΔΔCt).
(§5) Primers used for quantitative real-time PCR were as follows: […]
The details of the annealing temperature are as follows. […] The dsDNA-specific dye SYBR Green I incorporated into the PCR reaction buffer QuantiTech™ SYBR PCR (Qiagen) to allow for quantitative detection of the PCR product in a 25-μl reaction volume. […]

[1] = system: Transferrin receptor mRNA (TfR mRNA); experiment: Quantitative real-time PCR of transferrin receptor mRNA (positive control) in SY5Y cells; format: cell-based
Method: as §3, §4
3 μg total RNA was primed with oligo-dT and the Superscript II enzyme according to manufacturer's instructions (Invitrogen, Carlsbad, Calif.) to synthesize […] cDNA. For qRTPCR, primer specificity was initially verified by searching for homology to genomic databases using NCBI BLAST. After completion of qRTPCR, the appropriately sized amplicon were confirmed by agarose gel electrophoresis. All reactions were performed in duplicate in a 50 μl volume consisting of 3 μl cDNA, […] each of the forward and reverse primer of β-Actin and […] each of the forward and reverse primer of all other primer pairs, and the fluorescent SYBR Green I dye. Fluorescence was measured at the end of each annealing cycle using the ABI Prism 7000 (Applied Biosystems, Foster City, Calif.). Average threshold cycle (Ct) values were measured in the exponential phase of the PCR reaction for each duplicate sample. Average Ct values were normalized against that β-Actin amplified in parallel from the same sample. Relative expression of the treated samples was determined by first normalizing against that of the untreated samples (ΔCT^sample−ΔCT^normal=ΔΔCT) and then calculating the fold change (fold change=2^−ΔΔCt).
as §5
The details of the annealing temperature are as follows. […] For real-time PCR, the cDNA was amplified using an ABI PRISM 7000 Sequence Detection System (PE Applied Biosystems, Foster City, Calif.). The dsDNA-specific dye SYBR Green I incorporated into the PCR reaction buffer QuantiTech™ SYBR PCR (Qiagen) to allow for quantitative detection of the PCR product in a 25-μl reaction volume. The temperature profile of the reaction was 95° C. for 10 min, 40 cycles of denaturation at 95° C. for 15 sec, annealing at 60° C. for 30 sec, and extension at 72° C. for 30 sec. An internal housekeeping gene control, β-actin, was used to normalize differences in RNA isolation, RNA degradation, and the efficiencies of the RT. The size of the PCR product was first verified on a 1.5% agarose gel, followed by melting curve analysis.
as §1

α-synuclein 5′ UTR = experiment: Luciferase reporter assay, α-synuclein 5′UTR-pGL3 transfected neuroblastoma cells; format: cell-based, human; conditions: 48 hours, luciferase controlled by α-synuclein 5′ UTR
Method: as §2
A 46 base sequence (SEQ ID NO:21) of the α-synuclein 5′ UTR was synthesized with a HindIII site at the 5′ end and a Nco I site at the 3′ end (Integrated DNA Technologies, Coralville, Iowa) and then ligated into a pGL-3 vector (Promega, Madison Wis.) immediately in front of the luciferase gene, under the control of a SV40 promotor. Wild-type pGL3 or pGL3 containing the α-synuclein 5′ UTR insert upstream of the luciferase promotor (α-synuclein 5′UTR-pGL3) were used. Expression of green fluorescent protein (GFP) within the pGL3 vector, controlled by a SV40 late poly(A) signal was used to control for transfection efficiency. 8×10^5 neuroblastoma HYSY cells were seeded for 24 hours in 60-mm^2 dishes with 5 ml Dulbeccco's modified medium containing 10% fetal bovine serum. For transfection, cells were first rinsed 3× in Phosphate Buffered Saline (PBS) and then treated with 5 μg of purified DNA combined with PolyFect transfection reagent and growth medium, according to the manufacturer's specifications (Qiagen). After a 24 hours incubation at 37° and 5% CO2 to maximize transfection efficiency, cells were washed in PBS 3×, trypsonized and plated to 95% confluence in 96-well plates. Cells were allowed to seed in the 96-well plates for 12 hours in Dulbecco's modified medium containing 10% fetal bovine serum and ampicillin, to select for cells containing the plasmid, which contained an ampicillin resistance gene. […] Treatment medium was prepared fresh the day of experiment and incubated for 1 hour at 37° prior to the experiment to maximize solubility. […] Cells were lysed with 1× Bright-glo luciferase assay buffer and the lysates combined with bright-glo luciferase assay substrate warmed to 37°, according to the specifications of the manufacturer (Promega, Madison, Wis.). All experiments were performed in triplicate. Automated luciferase assays were performed with a Wallac 1420 multi-label counter. GFP expression was quantified at 489/509 nm with the same Wallac 1420 counter to control for transfection efficiency.

[2] = biological target: T1, Iron-Regulatory Protein-1 (IRP-1) binding to α-synuclein mRNA (Homo sapiens, UniProt P21399); experiment: Immunoprecipitation RT-PCR of α-synuclein mRNA bound to IRP-1 in SH-SY5Y lysates; format: cell-based; conditions: iron-treated SH-SY5Y cells, FIG. 6B
T1 construct: endogenous in cells; host or cells: SH-SY5Y neuroblastoma cells (lysates after treatment of the cells)
T1 sequence (P21399 1-889): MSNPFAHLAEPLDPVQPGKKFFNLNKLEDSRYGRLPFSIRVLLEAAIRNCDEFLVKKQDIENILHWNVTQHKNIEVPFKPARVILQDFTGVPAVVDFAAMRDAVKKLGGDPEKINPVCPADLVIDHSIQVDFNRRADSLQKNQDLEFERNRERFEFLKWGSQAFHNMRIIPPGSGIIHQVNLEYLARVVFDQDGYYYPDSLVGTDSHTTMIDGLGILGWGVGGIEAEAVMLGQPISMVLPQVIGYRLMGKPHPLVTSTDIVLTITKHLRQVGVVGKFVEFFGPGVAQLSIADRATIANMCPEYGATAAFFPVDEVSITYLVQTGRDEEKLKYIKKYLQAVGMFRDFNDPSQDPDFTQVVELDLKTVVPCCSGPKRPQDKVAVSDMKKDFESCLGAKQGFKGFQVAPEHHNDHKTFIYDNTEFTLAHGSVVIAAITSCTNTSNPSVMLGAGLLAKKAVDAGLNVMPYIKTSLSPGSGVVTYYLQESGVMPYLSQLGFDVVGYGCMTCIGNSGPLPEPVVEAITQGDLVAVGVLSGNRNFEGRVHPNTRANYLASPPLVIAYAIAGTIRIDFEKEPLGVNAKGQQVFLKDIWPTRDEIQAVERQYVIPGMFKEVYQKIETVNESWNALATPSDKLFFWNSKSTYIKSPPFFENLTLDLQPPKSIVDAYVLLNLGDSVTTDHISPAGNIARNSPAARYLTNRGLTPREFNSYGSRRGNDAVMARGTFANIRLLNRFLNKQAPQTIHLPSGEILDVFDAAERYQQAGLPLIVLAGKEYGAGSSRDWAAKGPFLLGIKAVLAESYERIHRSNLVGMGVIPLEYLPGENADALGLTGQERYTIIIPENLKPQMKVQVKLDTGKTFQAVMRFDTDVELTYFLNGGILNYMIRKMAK
Method: Neuroblastoma cells were treated with (i) DFO ([…]), (ii) feTf (10 μM) or remained untreated. Cells were lysed in RIPA buffer, and cytosolic extracts were immunoprecipitated with antibody to IRP-1 and IRP-2. After washing with Fe-beads the bound mRNA or superatant RNA was reverse transcribed and the mRNAs attached to the IRP-1/IRP—2 were identified by immunoprecipitation of RNA that selectively interacted with IRP-1/IRP-2 (method of Thomson, A. M., et al., Biol. Chem. 2005 Aug. 26; 280(34):30032-45. Epub 2005 Jun. 20.
We tested whether α-synuclein mRNA interacted with IRP-1 or IRP-2 by use of an RNA co-immunoprecipitation technique shown in FIG. 6. In this IPRT-PCR experiment α-synuclein mRNA was selectively co-immunoprecipitated with IRP-1 from neuroblastoma lysates (the presence of ASN mRNA was detected by PCR of cDNA reverse transcribed from mRNA immunopreciptated with IRP-1 on washed beads according to standard methods (Thomson, A. M., et al., (2005) J Biol Chem 280, 30032-30045). Ferritin mRNA was selectively immunopreciptated with both IRP-1 and IRP-2, whereas α-synuclein mRNA was selectively bound to IRP-1, not IRP-2. This technique was semi qualitative PCR, though the amount of α-synuclein mRNA attached IRP-1 was iron dependent in the experiment shown in FIG. 6B. […]

ferric ammonium citrate [FAC]
α-synuclein protein levels (monomer, 15 kDa) (α-synuclein protein; 100 μM FAC, 6 hour and 3 days, Western blot (FIG. 3)): increase
Tau mRNA levels (Tau mRNA): down regulated
effect on luciferase activity (wild-type pGL3 vector): no effect
α-synuclein mRNA levels (α-synuclein mRNA): did not change as significantly although it was reduced; also recorded: not modulated
TfR mRNA reduction by FAC ([1]; FIG. 5 (Tau experiment)): 4 fold
increase in luminescence (α-synuclein 5′ UTR; 10 mg/ml FAC): 5 fold
increase in luminescence (α-synuclein 5′ UTR; 100 mg/ml FAC, p<0.001): 20 fold

CC(=O)N(O)CCCCCNC(=O)CCC(=O)N(O)CCCCCNC(=O)CCC(=O)N(O)CCCCCN [DFO, desferrioxamine]
steady-state levels of α-synuclein protein (α-synuclein protein; 100 μM DFO (16 h)): reduced
intracellular levels of α-synuclein protein (α-synuclein protein; short-term (6 h) and long-term (3 d) desferrioxamine treatment): dramatic reduction
Tau mRNA levels (Tau mRNA): up-regulated; also recorded: dramatically changed
increase in induction for Tau mRNA (Tau mRNA; 16 hours treatment with DFO, relative to beta actin): 5 fold
effect on luciferase activity (wild-type pGL3 vector): no effect
α-synuclein mRNA levels (α-synuclein mRNA): unchanged; also recorded: not modulated
α-synuclein mRNA levels (α-synuclein mRNA; listed as desferrioxamine): unchanged
TfR mRNA up-regulation in response to DFO ([1]; DFO (100 μM where stated), FIG. 4, relative to beta actin): 3 fold
TfR mRNA up-regulation in response to DFO ([1]; FIG. 5 (Tau experiment), 16 hours DFO where stated): 4.5 fold
decrease in luminescence (α-synuclein 5′ UTR; 50 mM DFO): 25%
decrease in luminescence (α-synuclein 5′ UTR; 100 mM DFO, p<0.001): 50%

iron
fold reduction for Tau mRNA (Tau mRNA; 400 micromolar iron (16 h)): 0.66 fold
IRP-1 binding (to α-synuclein mRNA) [2]: reduced
fold reduction for TfR mRNA ([1]; 400 micromolar iron (16 h), FIG. 5): 0.45 fold

zinc
TfR mRNA responsiveness to zinc (control for iron specificity) ([1]; FIG. 5): surprisingly responsive
